From article PMC7782785, “Outer-membrane-acting peptides and lipid II-targeting antibiotics cooperatively kill Gram-negative pathogens” (Communications Biology, 2021)

Columns and labels:
A. baumannii ATCC 17978 = type: cell-based; conditions: checkerboard
Method: (§1) For the synergy test, standard checkerboard broth microdilution assays were conducted to test the synergistic effect of combined antimicrobials using the same condition as before[51],[56]. […] The initial concentration of both peptides was their individual MIC. 50 µL fresh bacterial suspension prepared as above was added to the wells already containing the antimicrobial compound mixture to achieve 100 µL final volume per well.
(§2) The fractional inhibitory concentration (FIC) indices[57] were calculated using the formula FICI = FICa + FICb = MICac/MICa + MICbc/MICb, to determine whether the combination is additive, synergistic or antagonistic[51],[57]. The MICa and MICb is the MIC of compound A or B alone, respectively. MICac is the MIC of compound A in combination with compound B and MICbc is the MIC of compound B when it was combined with compound A. The FIC corresponds to the MIC of a compound in combination with the other compound, divided by the MIC of the compound alone. FICa is FIC of compound A while FICb is FIC of compound B. The FICI was interpreted according to EUCAST[58] as follows: synergistic, FICI ≤ 0.5; additive,0.5 < FICI ≤ 1; indifferent, 1 < FICI < 2; antagonistic, FICI ≥ 2.

K. pneumoniae B1945 = type: cell-based; conditions: checkerboard
Method: as §1, §2

E. coli ATCC 25922 = type: cell-based; conditions: checkerboard
Method: as §1, §2

[1] = system: human red blood cells (hRBCs); assay: Hemolytic activity
Method: Hemolytic activity was determined with fresh human red blood cells (hRBCs)[28]. The hRBCs were centrifuged (1000×g, 5 min) and the supernatant was discarded. The pellets were washed three times with PBS and diluted in PBS to make the cell stock solution with a cell density of 2*10^8 cells/mL. […] 1% Triton X-100 and PBS were used as controls. The cells were incubated at 37 °C for 1 h and centrifuged at 2000 rpm for 5 min. The supernatant was transferred to a new 96-well plate and hemolysis was monitored by measuring the absorbance at 450 nm (OD450). Hemolysis levels were calculated as percentage. % hemolysis = 100 × (As−A0)/(At−A0), where As, A0, and At are the absorbance of the hRBCs suspension in PBS with antimicrobial agents (As), without antimicrobial agents (A0), and with 1% Triton X-100 (At). […] For the TI calculation (TI = MHC/GM), other factors as the GM (geometric mean of MIC value of all the Gram-negative strains tested) were calculated.

CN[C@H](CC(C)C)C(=O)N[C@H]1C(=O)N[C@@H](CC(N)=O)C(=O)N[C@H]2C(=O)N[C@H]3C(=O)N[C@H](C(=O)N[C@H](C(=O)O)c4cc(O)cc(O)c4-c4cc3ccc4O)[C@H](O)c3ccc(c(Cl)c3)Oc3cc2cc(c3O[C@@H]2O[C@H](CO)[C@@H](O)[C@H](O)[C@H]2O[C@H]2C[C@](C)(N)[C@H](O)[C@H](C)O2)Oc2ccc(cc2Cl)[C@H]1O [Vancomycin]
MICAB: MIC of vancomycin in combination with D-11 at the MICAC concentration (A. baumannii ATCC 17978): 5.52 µM | MICAB: MIC of vancomycin in combination with D-11 at the MICAC concentration (K. pneumoniae B1945): 11.04 µM | MICAB: MIC of vancomycin in combination with D-11 at the MICAC concentration (E. coli ATCC 25922): 5.52 µM | HC50, concentration that causes 50% hemolysis of hRBCs [1]: > 500 µM | MHA, mean hemolytic activity [1]: 0% | MHC, minimal hemolytic concentration that caused 10% hemolysis of hRBCs [1]: 1000 µM | hemolysis of hRBCs [1]: did not cause any hemolysis
